According to EPA's ToxValDB 9.5:
Several values for one entry are separate records, joined by “and”; a condition that tells them apart may be missing. Identical values can stand only once.

Assays:
Rattus norvegicus [1] = conditions: for LD50 / LC50: acute
Oryctolagus sp. = conditions: acute, dermal
Rattus norvegicus [2] = conditions: for LEL: uterotrophic, Active
Rattus norvegicus [3] = conditions: subchronic; duration: 13 weeks; oral; diet; F; Fischer 344; Body Weight Changes: decrease + Histopathology: Bone marrow-Reticulum-cell hyperplasia Bone marrow-Myeloid depletion
[4] = short-term, duration: 4 weeks, oral, diet, Sprague-Dawley
[5] = reproduction developmental, duration: 39 days, oral, gavage, generation: F0
[6] = short-term, duration: 28 days, oral, gavage
[7] = chronic, oral, diet, Sprague-Dawley
[8] = subchronic, duration: 90 days, oral, gavage, Sprague-Dawley
[9] = subchronic, duration: 90 days, oral, diet, Wistar
[10] = reproduction developmental, oral, gavage, Sprague-Dawley
[11] = subchronic, duration: 13 weeks, oral, gavage, Sprague-Dawley

## CCCCC(CC)COC(=O)c1c(Br)c(Br)c(Br)c(Br)c1C(=O)OCC(CC)CCCC (centres undefined) [Bis(2-ethylhexyl) tetrabromophthalate]
Rattus norvegicus [1]; oral, gavage, Crl:CD(SD)
  LD50: > 5000 mg/kg
Rattus norvegicus [1]; [4]
  LOAEL: 20000 ppm
  NOAEL: 2000 ppm
Oryctolagus sp.; New Zealand
  LD50: > 3090 mg/kg

## CC(C)CCCCCCCOP(=S)([S-])OCCCCCCCC(C)C.CC(C)CCCCCCCOP(=S)([S-])OCCCCCCCC(C)C.[Zn+2]
Oryctolagus sp.; New Zealand
  LD50: > 8000 mg/kg

## CCCCCCCCc1ccc(O)cc1 [4-Octylphenol]
Rattus norvegicus [2]; duration: 4 days, oral
  LEL: 100 mg/kg-day
Rattus norvegicus [1]; oral, gavage, albino
  LD50: 1100 mg/kg and 1200 mg/kg and 1400 mg/kg

## CC(C)C(C)(N)C#N (centres undefined) [2-Amino-2,3-dimethylbutanenitrile]
Rattus norvegicus [1]; inhalation, Sprague-Dawley
  LC50: 422 mg/m3 and 335 mg/m3
Rattus norvegicus [1]; oral, gavage, Sprague-Dawley
  LD50: 83 mg/kg
Rattus norvegicus [1]; short-term, duration: 28 days, dermal, occlusive, Charles River (Sprague-Dawley derived)
  NOAEL: 3 mg/kg-day
Oryctolagus sp.; occlusive, New Zealand
  LD50: 23 mg/kg

## OC1CCCCC1 [Cyclohexanol]
Rattus norvegicus [1]; Inhalation, Sprague-Dawley
  LC50: > 3.63 µg/mL
Rattus norvegicus [1]; oral, gavage, Carworth Wistar
  LD50: 2060 mg/kg
Rattus norvegicus [1]; oral, gavage, Sprague-Dawley
  LD50: 1550 mg/kg
Rattus norvegicus [1]; developmental, inhalation, Sprague-Dawley
  NOAEL: 614 mg/m3
Rattus norvegicus [1]; reproduction developmental, duration: 10 weeks, inhalation, Sprague-Dawley, generation: F0
  NOAEL: 614 mg/m3
Rattus norvegicus [1]; reproduction developmental, duration: 10 weeks, inhalation, Sprague-Dawley, generation: F1
  NOAEL: 614 mg/m3
Rattus norvegicus [1]; reproduction developmental, duration: 13 weeks, inhalation, Sprague-Dawley
  NOAEL: 614 mg/m3
Oryctolagus sp.; New Zealand
  LD50: ≥ 501 mg/kg and ≤ 794 mg/kg

## CCCCCCCCCCCCOC(=O)CS(=O)(=O)[O-].[Na+] [Sodium 2-(dodecyloxy)-2-oxoethane-1-sulphonate]
Rattus norvegicus [1]; oral, Wistar
  LD50: 1000 mg/kg
Rattus norvegicus [1]; oral, gavage, Sprague-Dawley
  LD50: > 2000 mg/kg
Rattus norvegicus [1]; reproduction developmental, duration: 39 days, oral, gavage
  NOAEL: 1000 mg/kg-day
Rattus norvegicus [1]; [5]
  LOAEL: 1000 mg/kg-day
  NOAEL: 200 mg/kg-day
Rattus norvegicus [1]; [6]
  LOAEL: 800 mg/kg-day
  NOAEL: 200 mg/kg-day
Oryctolagus sp.; occlusive, New Zealand
  LD50: > 2000 mg/kg

## O=C1c2ccccc2C(=O)N1SC1CCCCC1 [N-(Cyclohexylthio)phthalimide]
Rattus norvegicus [1]; [7]
  LOAEL: 150 mg/kg-day
  NOAEL: 50 mg/kg-day
Oryctolagus sp.; occlusive, New Zealand
  LD50: > 5010 mg/kg

## COC(=O)Nc1nc2ccccc2[nH]1 [Carbendazim]
Rattus norvegicus [2]; Hershberger, duration: 10 days, oral, gavage, Wistar, inactive + Negative + Negative + Neither + effects on fertility, reduced testis/epididymal wt and abnormal histo in P0, fertility
  NOEL: 100 mg/kg-day
Rattus norvegicus [1]; oral, gavage, Harlan Sprague Dawley
  LD50: > 5050 mg/kg

## O=C(OCC1CCC2OC2C1)C1CCC2OC2C1 (centres undefined) [ECC]
Rattus norvegicus [1]; oral, gavage, Sprague-Dawley
  LD50: 5000 mg/kg
Rattus norvegicus [1]; developmental, duration: 14 days, oral, gavage, Sprague-Dawley
  NOAEL: 125 mg/kg-day
Rattus norvegicus [1]; reproduction developmental, duration: 14 days, oral, gavage, F, Sprague-Dawley
  NOAEL: 25 mg/kg-day
Rattus norvegicus [1]; reproduction developmental, duration: 90 days, oral, gavage, Sprague-Dawley, generation: F0
  NOAEL: ≥ 500 mg/kg-day
Rattus norvegicus [1]; short-term, duration: 14 days, oral, gavage, Sprague-Dawley
  LOAEL: 100 mg/kg-day
Rattus norvegicus [1]; [8]
  LOAEL: 50 mg/kg-day
  NOAEL: 5 mg/kg-day
Oryctolagus sp.; occlusive, New Zealand
  LD50: > 20 mg/kg

## O=C1O[C@H]([C@@H](O)CO)C(O)=C1O [L-Ascorbic acid]
Rattus norvegicus [2]; duration: 20 days, injection, subcutaneous
  LEL: 25 mg/kg-day
Rattus norvegicus [3]
  NOEL: < 2400 mg/kg-day

## CC(C#N)CCC#N (centres undefined) [2-Methylpentanedinitrile]
Rattus norvegicus [1]; oral, Sprague-Dawley
  LD50: 205 mg/kg and ≥ 174 mg/kg and ≤ 243 mg/kg
Rattus norvegicus [1]; short-term, duration: 4 weeks, inhalation, Crl:CD(SD) BR
  NOAEL: 25 mg/m3
Oryctolagus sp.; New Zealand
  LD50: 776 mg/kg

## CCCCCCCCC(=O)OCC(CC)(COC(=O)CCCCCCCC)COC(=O)CCCCCCCC [Trimethylolpropane trinonanoate]
Rattus norvegicus [1]; oral, gavage, Crl:CD(SD)
  LD50: > 2000 mg/kg
Rattus norvegicus [1]; oral, gavage, Sherman Wistar
  LD50: > 5000 mg/kg
Rattus norvegicus [1]; oral, gavage, Sprague-Dawley
  LD50: > 2000 mg/kg
Rattus norvegicus [1]; oral, gavage, Wistar
  LD50: > 2000 mg/kg
Oryctolagus sp.
  LD50: > 2000 mg/kg

## CCCCCCCCCCCCN(C)C [N,N-Dimethyldodecan-1-amine]
Rattus norvegicus [1]; oral, gavage, Wistar
  LD50: 1220 mg/kg and 790 mg/kg
Oryctolagus sp.; occlusive, New Zealand
  LD50: 5000 mg/kg

## COc1c(Cl)ccc(Cl)c1C(=O)[O-].[Na+] [Sodium dicamba]
Rattus norvegicus [1]; oral, Sprague-Dawley
  LD50: > 1000 mg/kg
Oryctolagus sp.; occlusive, New Zealand
  LD50: > 400 mg/kg

## CCCCCCC=O [Heptanal]
Rattus norvegicus [1]; Inhalation, Sprague-Dawley
  LC50: > 4.7 µg/mL
Rattus norvegicus [1]; oral, gavage
  LD50: > 5000 mg/kg
Rattus norvegicus [1]; reproduction developmental, oral, gavage, F, Wistar
  NOAEL: 2050 mg/kg-day
Rattus norvegicus [1]; [9]
  LOAEL: 150 mg/kg-day
  NOAEL: 37 mg/kg-day
Oryctolagus sp.
  LD50: > 5000 mg/kg

## CCOP(=O)(CN(CCO)CCO)OCC [Diethyl (N,N-bis(2-hydroxyethyl)amino)methanephosphonate]
Rattus norvegicus [1]; oral, gavage, Sprague-Dawley
  LD50: > 5000 mg/kg
Rattus norvegicus [1]; [10]
  LOAEL: > 750 mg/kg-day
  NOAEL: 750 mg/kg-day
Rattus norvegicus [1]; [11]
  LOAEL: > 500 mg/kg-day
  NOAEL: 500 mg/kg-day
Oryctolagus sp.
  LD50: > 2000 mg/kg
Oryctolagus sp.; Albino
  LD50: > 2000 mg/kg

## CCCC[N+](CC)(CCCC)CCCCCC[N+](CC)(CCCC)CCCC.[OH-].[OH-]
Rattus norvegicus [1]; oral, gavage, Sprague-Dawley
  LD50: 350 mg/kg
Oryctolagus sp.; New Zealand
  LD50: 22.4 mg/kg
